Assay results reported in patent US8148424B2, “Tocopherols, tocotrienols, other chroman and side chain derivatives and uses thereof” (Research Development Foundation, priority 1998, dated 2012).
In brackets after ≈: the same amount, converted by molar mass.

Assays:
[1] = system: Fas/Fas ligand signaling pathway; assay: Fas/Fas ligand apoptotic signaling in Fas resistant tumor cells; format: cell-based, human
Text: Activated Fas/Fas ligand signaling may lead to rapid cell death by apoptosis. Thus, for tumor cells to escape death by Fas/Fas ligand, they must inactivate this most important apoptotic pathway. The mechanism for inactivation of the Fas/Fas ligand signaling pathway by tumor cells varies; however, many tumor cells down regulate the expression of Fas receptor and Fas ligand on their membranes.

[2] = system: Fas ligand on the membrane of LNCaP prostate cells; assay: Fas ligand expression on cell membrane; format: cell-based
C-170 = assay: Bioassay for apoptosis (apoptotic EC50); format: cell-based, human; conditions: Homo sapiens, C170, C-170; unit inferred
Procedure, shortened: (§1)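 Cells seeded at 1.5×10^5/well, adhered overnight, then exposed to compounds at 0.01–20 μg/mL for 1, 2 and 3 days. Floating plus trypsinised cells were stained with 2 μg/ml DAPI in methanol (15 min, 37° C) and/or TUNEL, and scored microscopically as percent apoptotic cells.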

DU-145 = assay: Bioassay for apoptosis (apoptotic EC50); format: cell-based, human; conditions: Homo sapiens, unit inferred
Procedure, shortened: (§2)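 Adherent tumor cells exposed to compounds at 0.01–20 μg/mL for 1, 2 and 3 days. Floating plus trypsinized cells stained with DAPI and/or TUNEL; cells with condensed/fragmented chromatin or TUNEL-positive DNA scored microscopically, reported as percent apoptotic.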

A-549 = assay: Bioassay for apoptosis (apoptotic EC50); format: cell-based, human; conditions: Homo sapiens, A549, unit inferred
Procedure, shortened: as §2

MCF-7 = assay: Bioassay for apoptosis (apoptotic EC50); format: cell-based, human; conditions: MCF-7; unit not given; in µg/mL
Procedure, shortened: as §1

PC-3 = assay: Bioassay for apoptosis (apoptotic EC50); format: cell-based, human; conditions: PC-3; unit not given; in µg/mL
Procedure, shortened: as §1

MDA-MB-435 = assay: Bioassay for apoptosis (apoptotic EC50); format: cell-based, human; conditions: MDA-MB-435; unit not given; in µg/mL
Procedure, shortened: as §1

MDA-MB-231 = assay: Bioassay for apoptosis (apoptotic EC50); format: cell-based, human; conditions: MDA-MB-231; unit not given; in µg/mL
Procedure, shortened: as §1

Jurkat = assay: Bioassay for apoptosis (apoptotic EC50); format: cell-based, human; conditions: Homo sapiens, unit inferred
Procedure, shortened: as §2

HT-29 = assay: Bioassay for apoptosis (apoptotic EC50); format: cell-based, human; conditions: Homo sapiens, unit inferred
Procedure, shortened: as §2

LnCaP = assay: Bioassay for apoptosis (apoptotic EC50); format: cell-based, human; conditions: Homo sapiens, unit inferred
Procedure, shortened: as §1

ME-180 = assay: Bioassay for apoptosis (apoptotic EC50); format: cell-based, human; conditions: ME-180; unit not given; in µg/mL
Procedure, shortened: as §1

DLD-1 = assay: Bioassay for apoptosis (apoptotic EC50); format: cell-based, human; conditions: Homo sapiens, unit inferred
Procedure, shortened: as §2

HL-60 = assay: Bioassay for apoptosis (apoptotic EC50); format: cell-based, human; conditions: HL-60; unit not given; in µg/mL
Procedure, shortened: as §1

RL-95-2 = assay: Bioassay for apoptosis (apoptotic EC50); format: cell-based, human; conditions: Homo sapiens, RL95-2, RL-95-2; unit inferred
Procedure, shortened: as §1

MCF-7 cells = assay: DNA synthesis arrest by 3H-uptake (Example 8); format: cell-based, human; conditions: Homo sapiens, MCF7, 5% serum, 3H-uptake at one day treatment
Procedure: (§3) MDA-MB-435 and MCF-7 cells at 1.5×10^5/well in 12 well plates for apoptosis and 1.5×10^4/well in 96 well plates for DNA synthesis arrest were incubated overnight in culture media and treated with α-tocopherol, α-tocotrinel, compound 1, 6-0-carboxymethyl alpha-tocotrienol (6-0-CM-α-T, 44), and vitamin E succinate (VES) at different concentrations in experimental media (2% serum for MDA-MB-435 cells and 5% serum for MCF-7 cells). DNA synthesis arrest was determined by ^3H-uptake at one day treatment and apoptosis was detected by DAPI staining at three day treatment. EC50 was calculated as the dosage of test compounds that gave 50% growth inhibition.

MDA-MB-435 cells = assay: DNA synthesis arrest by 3H-uptake (Example 8); format: cell-based, human; conditions: Homo sapiens; MDA-MB-435; 2% serum; 3H-uptake at one day treatment
Procedure: as §3

[3] = system: P21 in MDA-MB-435 human breast cancer cells; assay: P21 expression; format: cell-based
Text: The mechanisms of growth inhibition by DNA synthesis arrest, cell cycle arrest and by induction of cellular differentiation have not been characterized as fully as the mechanism of growth inhibition by apoptosis. […] Tumor cells cultured with the compounds disclosed herein are growth inhibited in the G1 cell cycle phase, undergo morphological changes and express milk lipids, an indication that the cell cycle blocked cells have undergone differentiation.

HMEC = assay: Bioassay for apoptosis (apoptotic EC50); format: cell-based; conditions: Homo sapiens, unit inferred
Procedure, shortened: as §2

T47D = assay: Bioassay for apoptosis (apoptotic EC50); format: cell-based; conditions: Homo sapiens, unit inferred
Procedure, shortened: as §2

PREC = assay: Bioassay for apoptosis (apoptotic EC50); format: cell-based; conditions: Homo sapiens, unit inferred
Procedure, shortened: as §2

MCF-10A = assay: Bioassay for apoptosis (apoptotic EC50); format: cell-based; conditions: Homo sapiens, unit inferred
Procedure, shortened: as §1

[4] = Solubility in ethanol (stock solution); format: physicochemical; conditions: in 5 mls of 100% ethanol, vortex at 37° C.
Text: This is the maximum amount of compound 1 that will go into solution.

Cc1c(C)c2c(c(C)c1OCC(=O)O)CC[C@@](C)(CCC[C@H](C)CCC[C@H](C)CCCC(C)C)O2 [Compound 1, 2,5,7,8-tetramethyl-(2R-(4R,8R,12-trimethyltridecyl)chroman-6-yloxy)acetic acid]
Fas receptor localisation ([1]; Fas signaling resistant human breast cancer cells): transported from the cytoplasm to the membrane
Fas/Fas ligand sensitivity of resistant tumor cells ([1]; Fas/Fas ligand resistant tumor cells): induce Fas/Fas ligand resistant tumor cells to become Fas/Fas ligand sensitive
anti-Fas triggered apoptosis, co-treatment ([1]; human breast and prostate cancer cells, co-treated versus separately): synergistic
expression of Fas ligand on the membrane [2]: enhance the expression of Fas ligand
EC50 (C-170): 10 to 20 µg/mL (≈ 20.5 to 40.9 µM)
EC50 (DU-145): 5 to 10 µg/mL (≈ 10.2 to 20.5 µM)
EC50 (A-549): 10 to 20 µg/mL (≈ 20.5 to 40.9 µM)
apoptotic EC50 (MCF-7): 5-10
apoptotic EC50 (PC-3): 5-10
apoptotic EC50 (MDA-MB-435): 5-10
apoptotic EC50 (MDA-MB-231): 5-10
EC50 (Jurkat): 10 to 20 µg/mL (≈ 20.5 to 40.9 µM)
EC50 (HT-29): 10 to 20 µg/mL (≈ 20.5 to 40.9 µM)
EC50 (LnCaP): 5 to 10 µg/mL (≈ 10.2 to 20.5 µM)
apoptotic EC50 (ME-180): 1-5
EC50 (DLD-1): 10 to 20 µg/mL (≈ 20.5 to 40.9 µM)
apoptotic EC50 (HL-60): 5-10
EC50 (RL-95-2): 10 to 20 µg/mL (≈ 20.5 to 40.9 µM)
EC50 (MCF-7 cells): 20 µM
EC50 (MDA-MB-435 cells): 15 µM
P21 mRNA and protein [3]: up-regulated
EC50 (HMEC): > 20 µg/mL
EC50 (T47D): > 20 µg/mL
EC50 (PREC): > 20 µg/mL
EC50 (MCF-10A): > 20 µg/mL
maximum amount that will go into solution [4]: 2 grams
